US7160992B2, “Amino-modified polysaccharides and methods of generating and using same” (Yeda Research and Development Co., Ltd., priority 2003, dated 2007)
≈ marks a conversion by molar mass, not a printed value. Where “and” joins values, the source holds several entries; their conditions need not be identical. Identical values can stand only once.

Key:
[1] = tested on: E. coli; test: Minimal inhibitory concentration, serial two-fold dilutions in TSB; assay type: cell-based
[2] = tested on: HIV-1IIIB wild type; test: Inhibition of HIV-1IIIB wild type in MT2 or cMAGI cells; assay type: cell-based; conditions: HIV-1IIIB wt; mean and standard deviation of three separate experiments; read-out: EC50, Wild-type
Description: The cMAGI assay is based on the ability of HIV-1 TAT to transactivate the expression of an integrated β-galactosidase reporter gene driven by the HIV-LTR [Chackerian, B. et al., 1997. J Virol. 71: 3932–3939; Collins, K. B. et al., 2000. Nat. Med. 6: 475–479]. The β-galactosidase reporter has been modified to remain localized in the nucleus where it can be detected with the X-gal substrate as an intense nuclear stain within a few days of infection. The X-gal substrate used was 5-bromo-4-chloro-3-indoyl-beta-D-galactopyranoside. HIV1IIIB was propagated by subculture in MT2 as described previously [Litovchick (2001) Supra]. Aliquots of cell-free culture supernatants were used as viral inoculum. […] The cytopathic effects of the viral infection of MT2 cells were analyzed by microscopic assessment of syncytium formation. These latter data were obtained by analysis of duplicate samples by two independent observers. HIV-1 infection of cMAGI cells was determined by counting the number of HIV-1 infected cells (stained blue).

[3] = tested on: cMAGI cells; test: Competition between FITC-labelled AACs and RANTES; assay type: cell-based; conditions: 2.5 mM RANTES
Method: Competition between FITC labelled AACs (1 mM) and RANTES (2.5 mM, Pepro Tech Inc., New Jersey, USA) was effected in 2×10^5 cMAGI cells. Following 30 min of incubation, cells were washed with ice-cold wash buffer and analysed by flow cytometry as described above.

[4] = target: T1, CD4 (Homo sapiens, UniProt P01730); conditions: PHA stimulated peripheral blood lymphocytes; cited from earlier work
T1 construct: in PHA stimulated peripheral blood lymphocytes (PBL); host or cells: PHA stimulated peripheral blood lymphocytes (PBL)

[5] = tested on: B. subtilis; test: Minimal inhibitory concentration, serial two-fold dilutions in TSB; assay type: cell-based
[6] = target: RRE IIB RNA; test: Fluorescence anisotropy: RhdRev binding and AAC competition for RRE IIB RNA; parameters: species or system HIV-1
[7] = target: T2, CXCR4 (Homo sapiens, UniProt P61073); test: Inhibition of anti-CXCR4 mAb 12G5 binding to cells, flow cytometry; assay type: cell-based; conditions: 10 μM AAC
T2 construct: endogenous in cells; host or cells: PM1 cells and PBMC
T2 sequence (P61073 whole entry): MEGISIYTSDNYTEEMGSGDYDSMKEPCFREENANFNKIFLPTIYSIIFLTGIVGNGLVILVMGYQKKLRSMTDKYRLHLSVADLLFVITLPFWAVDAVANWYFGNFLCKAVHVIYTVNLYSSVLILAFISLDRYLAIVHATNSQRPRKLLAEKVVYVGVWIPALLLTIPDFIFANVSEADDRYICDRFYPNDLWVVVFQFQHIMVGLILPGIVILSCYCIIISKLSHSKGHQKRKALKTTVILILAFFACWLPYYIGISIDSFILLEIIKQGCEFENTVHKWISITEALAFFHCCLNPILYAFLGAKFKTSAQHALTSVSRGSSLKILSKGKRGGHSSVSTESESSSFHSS
Method: FIGS. 11a–d are graphs depicting the binding of AACs to CXCR4 in the presence of anti CXCR4 antibody (12G5). PM1 cells were incubated with PE-conjugated isotype control mAb, PE-anti CXCR4 conjugated mAb (12G5) alone, or in the presence of the indicated AACs for 30 min at 4° C. The cells were then washed twice with PBS and analyzed by flow cytometry. The MFI values are shown in parenthesis.
Interaction of AACs with CXCR4 was determined by flow cytometry (FACScan, Becton Dickinson) as described recently (Litovchick et al., 2001, supra). Briefly, 0.5×10^6 cells were washed in ice-cold PBS containing 0.1% sodium azide (wash buffer) and incubated at 4° C. with anti-CXCR4 mAb, 12G5 (PharMingen, San Diego, Calif.) conjugated to phycoerithrine (PE), in the absence or presence of different concentrations of the AACs. After 30 min of incubation, the cells were washed with ice-cold wash buffer and fixed in PBS containing 1% paraformaldehyde. Non-specific fluorescence was assessed by using isotype-matched control. For each sample 10,000 events were acquired. Data were analyzed and processed using CellQuest™ software (Becton Dickinson).

[8] = tested on: E. faecalisr; test: Minimal inhibitory concentration, serial two-fold dilutions in TSB; assay type: cell-based
[9] = tested on: lymphocytes, PBMC and neurons; conditions: cited from earlier work
[10] = target: TAR RNA; test: Fluorescence anisotropy: RhdRev binding and AAC competition for TAR RNA; parameters: species or system HIV-1
[11] = tested on: Gram-positive bacteria; test: Minimal inhibitory concentration, Gram-positive bacteria as a group; assay type: cell-based; conditions: range over susceptible Gram-positive bacteria
[12] = tested on: P. aeruginosa; test: Minimal inhibitory concentration, serial two-fold dilutions in TSB; assay type: cell-based
[13] = tested on: S. aureus; test: as above; assay type: cell-based
[14] = target: T3, CCR5 (Homo sapiens, UniProt P51681); conditions: PHA stimulated peripheral blood lymphocytes; cited from earlier work
T3 construct: in PHA stimulated peripheral blood lymphocytes (PBL); host or cells: PHA stimulated peripheral blood lymphocytes (PBL)
T3 sequence (P51681 whole entry): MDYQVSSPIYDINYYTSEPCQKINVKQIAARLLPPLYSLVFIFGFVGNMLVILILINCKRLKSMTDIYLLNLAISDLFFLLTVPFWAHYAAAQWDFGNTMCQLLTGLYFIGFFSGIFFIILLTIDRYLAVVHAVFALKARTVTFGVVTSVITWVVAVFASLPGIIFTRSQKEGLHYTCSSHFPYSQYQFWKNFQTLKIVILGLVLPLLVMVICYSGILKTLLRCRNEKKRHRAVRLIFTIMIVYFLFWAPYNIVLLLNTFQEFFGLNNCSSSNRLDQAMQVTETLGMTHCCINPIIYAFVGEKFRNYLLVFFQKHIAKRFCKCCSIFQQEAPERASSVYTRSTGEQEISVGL

[15] = tested on: U38, PM1, H9 cells and PBMC; test: Cellular uptake of AAC-FITC fluorescent probes, fluorescence microscopy; assay type: cell-based; conditions: 0.5 μM, 10 minutes of incubation
Method: Images were obtained using a Zeiss Axiophot microscope.
Cellular uptake using AAC fluorescent probes—U38, PM1, H9 cells and PBMC(10^5) were incubated for 20 minutes at room temperature in 100 μl RPMI 1640 medium (Gibco-BRL, Life-Technologies, UK) including AAC-FITC derivatives as indicated at a final concentration of 0.5 μM. Cells were washed twice, resuspended in 100 μl medium and analyzed with a Zeiss Axiophot fluorescent microscope.

[16] = tested on: ICR (CD-1) mice; test: Acute intravenous toxicity of NeoR6 in mice; assay type: in vivo
Method: Injection volumes applied ranged from 4–10 ml/kg
Observation of clinical signs post-NeoR6 injection—On the day of injection, careful clinical examinations were carried out continuously during the first 90 minutes post-injection. Thereafter, animals were inspected at least once a day for 14 consecutive days. Observations included changes in the skin and fur, eyes and mucous membranes, respiratory, circulatory, autonomic and central nervous systems, somatomotor activity and behavior pattern with particular attention to occurrence of tremors, convulsions, salivation, diarrhea, lethargy, sleep and coma.
Necropsy and Gross Pathology—All test animals, including decedents were subjected to gross necropsy. At necropsy all animals were thoroughly examined for abnormality of tissues or organs. All major body cavities were opened, larger organs were sectioned and the gastro-intestinal tract was opened at intervals for examination of the mucosal surfaces. The normal appearance of major organs was confirmed for each animal and any gross pathological changes or abnormalities were described.

[17] = tested on: S. epidermidis; test: Minimal inhibitory concentration, serial two-fold dilutions in TSB; assay type: cell-based

Compound: NC(N)=NCCC[C@H](N)C(=O)NC[C@@H]1OC(O[C@H]2[C@@H](O)[C@H](O[C@@H]3[C@@H](O)[C@H](NC(=O)[C@@H](N)CCCN=C(N)N)C[C@H](NC(=O)[C@@H](N)CCCN=C(N)N)[C@H]3O[C@H]3O[C@H](CNC(=O)[C@@H](N)CCCN=C(N)N)[C@@H](O)[C@H](O)[C@H]3NC(=O)[C@@H](N)CCCN=C(N)N)O[C@@H]2CO)[C@H](NC(=O)[C@@H](N)CCCN=C(N)N)[C@@H](O)[C@@H]1O (stereo partly shown) [NeoR6, Neomycin hexa-arginine conjugate]
- MIC [1]: 100 µg/mL (≈ 64.4 µM)
- EC50 [2]: 1900 nM
- effect of RANTES on uptake of FITC derivative [3]: did not affect uptake
- inhibition of binding of anti CD4 antibody (Leu 3a) [4]: neither R3G nor R4K or NeoR6 inhibit the binding
- MIC [5]: 1.56 µg/mL (≈ 1.01 µM)
- Kd ([6]; competition of AACs with RhdRev (10 nM) for RRE IIB RNA (20 nM) binding, 85 mM NaCl): 23 nM and 23.3 nM
- IC50 ([6]; competition of AACs with RhdRev for RRE IIB RNA binding): 72.7 ± 10.1 nM
- reduction of 12G5 mAb binding to the cells ([7]; PM1 cells, 30 min at 4° C.): 90%
- median fluorescence intensity (MFI) of PE-12G5 in presence of AAC ([7]; mAb alone 451, isotype control 30): 76
- MIC (mg/L) [8]: ≧200 mg/L
- accumulation in cells [9]: accumulate in different cell types
- Kd ([10]; competition of AACs with RhdRev (10 nM) for TAR RNA (20 nM) binding, 85 mM NaCl): 5 nM
- IC50 ([10]; competition of AACs with RhdRev for TAR RNA binding): 19.9 ± 2.7 nM
- competition with RhdRev for TAR RNA binding (in words) ([10]; up to 20 μM of AAC): efficiently competed
- MIC values, Gram-positive bacteria [11]: 0.78 to 6.25 µg/mL
- MIC [12]: 100 µg/mL (≈ 64.4 µM)
- MIC [13]: 6.25 µg/mL (≈ 4.03 µM)
- inhibition of binding of 2D7, a mAb directed to CCR5 [14]: neither R3G nor R4K or NeoR6 inhibit the binding
- cellular uptake of FITC-labeled AAC by PM1 cells [15]: uptaken by PM1 cells
- adverse effects ([16]; 50 mg/kg as 2 successive injections, interdosing interval of 3 hours): did not cause any adverse effects other than a very transient reduction in respiratory rate and spontaneous motor activity
- weight gain (in words) ([16]; 14-day observation period, all mice except 2 females (10 or 30 mg/kg)): normal mode of weight gain
- maximum tolerated dose (MTD) ([16]; acute IV administration): 30 to 35 mg/kg
- pathological findings at necropsy ([16]; decedent and surviving animals): no pathological findings
- Weight Gain (gr.) (Day 1–15) ([16]; group 2F, 1 female, 15 mg/kg single bolus): 4.3 gr.
- Weight Gain (gr.) (Day 1–15) ([16]; group 3F, 1 female, 25 mg/kg single bolus): 5.3 gr.
- Weight Gain (gr.) (Day 1–15) ([16]; group 4F, 2 females, 30 mg/kg single bolus, one survivor): 1.6; — gr.
- clinical signs ([16]; single IV 30 and 35 mg/kg, confined to the first 10 min after dosing): respiratory and motoric irregularities
- mortality ([16]; single female mouse, 30 mg/kg IV): died within the first five minutes post-injection
- reaction to treatment ([16]; single intravenous administration, 10, 15 and 25 mg/kg): No obvious reaction to treatment
- toxicity when given intravenously ([16]; two single doses of 25 mg/kg of body weight over the course of 2 hours): non-toxic
- MIC [17]: 0.78 µg/mL (≈ 0.503 µM)
